Data as given in patent US7112574B2, “C2,8-disubstituted adenosine derivatives and their different uses” (priority 2001, dated 2006).
Read-outs that look alike come from different tables or passages of the source.

Key:
human A3 receptor = target: T1, human A3 receptor (Homo sapiens, UniProt P0DMS8); experiment: Radioligand binding, displacement of [125I]AB-MECA from human A3 receptor expressed in HEK 293 cells; details: for % displacement at 10^-5 M, A3: 10 μM, n=2, mean value
T1 construct: expressed in transfected cells; host or cells: HEK 293
T1 sequence (P0DMS8 1-318): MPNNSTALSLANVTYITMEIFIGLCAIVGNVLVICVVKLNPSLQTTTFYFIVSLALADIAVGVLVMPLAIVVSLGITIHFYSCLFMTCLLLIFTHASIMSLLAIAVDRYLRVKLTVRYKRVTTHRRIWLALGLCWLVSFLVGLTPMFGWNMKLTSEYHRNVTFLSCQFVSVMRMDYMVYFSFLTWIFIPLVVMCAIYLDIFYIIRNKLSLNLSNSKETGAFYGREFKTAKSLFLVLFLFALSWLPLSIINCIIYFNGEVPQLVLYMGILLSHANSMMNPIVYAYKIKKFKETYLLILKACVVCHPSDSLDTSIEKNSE
Method: (§1) Incubations were carried out for 1 hr at 37° C. and were terminated by rapid filtration over Whatman GF/B filters, using a Brandell cell harvester (Brandell, Gaithersburg, Md.). Tubes were washed three times with 3 ml of buffer. Radioactivity was determined in a Beckman 5500B γ-counter. Nonspecific binding was determined in the presence of 10^−5 M R-PIA.
(§2) All compounds prepared were tested in radioligand binding assays to determine their affinities for the adenosine A1 receptor in rat brain cortex, the A2A receptor in rat striatum and the human A3 receptor as expressed in HEK 293 cells (Table 2, hereinafter). The Ki values were computed from the displacement curves obtained by nonlinear regression of the competition curves with the software package Prism (Graph Pad, San Diego, Calif.)
(§3) For the adenosine A1 receptor, the tritiated antagonist, [^3H]-1,3-dipropyl-8-cyclopentylxanthine ([^3H]DPCPX), and for the adenosine A2A receptor, the tritiated antagonist [^3H]ZM 241385 were used. Since radiolabeled antagonists are not commercially available for the adenosine A3 receptor, [125I]AB-MECA, an A3 receptor agonist, was used. Displacement experiments were performed in the absence of GTP.

[1] = target: human adenosine A2A receptors (Homo sapiens, UniProt P29274); details: for agonist behaviour (intrinsic activity) at the adenosine A2A receptor: cAMP production compared to reference agonist CGS 21680, words
Method: CHO cells expressing the human adenosine A2A receptors were grown overnight as a monolayer in 24 wells tissue culture plates (400 μl/well; 2×10^5 cells/well). cAMP generation was performed in Dulbecco's Modified Eagles Medium (DMEM)/N-2-hydroxyethylpiperazin-N′-2-ethansulfonic acid HEPES) buffer (0.60 g HEPES/50 ml DMEM pH 7.4). To each well, washed three times with DMEM/HEPES buffer (250 μl), 100 μl DMEM/HEPES buffer, 100 μl adenosine deaminase (final concentration 5 IU/ml) and 100 μl of a mixture of rolipram and cilostamide (final concentration 50 μM each) were added. After incubation for 40 minutes at 37° C., 100 μL agonist was added. After 15 minutes at 37° C., the reaction was terminated by removing the medium and adding 200 μl 0.1 M HCl. Wells were stored at −20° C. until assay.
The amounts of cAMP were determined after a protocol with cAMP binding protein^12 with the following minor modifications. As a buffer was used 150 mM K2HPO4/10 mM EDTA/0.2% Bovine Serum Albumine (BSA) at pH 7.5. Samples (20 μl+30 μl 0.1 M HCl) were incubated for at least 2.5 hours at 0° C. before filtration over Whatman GF/B filters. […] Filters were counted in Packard Emulsifier Safe scintillation fluid (3.5 ml) after 24 hours of extraction.
All compounds prepared were also tested in a functional assay.

adenosine A1 receptor = target: T2, adenosine A1 receptor (Rattus norvegicus, UniProt P25099); experiment: biochemical; details: for inhibition at 10 µM: read-out: % displacement at 10^-5 M, A1
T2 sequence (P25099 1-326): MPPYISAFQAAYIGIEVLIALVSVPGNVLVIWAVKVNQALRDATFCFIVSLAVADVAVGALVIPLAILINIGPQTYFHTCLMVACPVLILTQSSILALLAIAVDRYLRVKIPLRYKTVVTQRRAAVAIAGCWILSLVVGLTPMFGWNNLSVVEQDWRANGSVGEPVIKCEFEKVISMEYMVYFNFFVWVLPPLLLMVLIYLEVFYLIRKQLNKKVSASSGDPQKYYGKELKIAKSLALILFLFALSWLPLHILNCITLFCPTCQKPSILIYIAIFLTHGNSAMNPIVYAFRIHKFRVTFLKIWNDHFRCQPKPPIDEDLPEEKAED
Method: as §1, §2, §3

adenosine A2A receptor = adenosine A2A receptor (Rattus norvegicus, UniProt P30543); experiment: biochemical; details: for A3/A2A: ratio of Ki A3 (human) to Ki A2A (rat); for % displacement at 10^-5 M, A2A: [3H]ZM241385, rat striatal membranes, 10 μM, n=2, mean value
Method: as §1, §2, §3

[2] = [125I]AB-MECA, human A3 receptor in HEK 293 cells

| SMILES | Ki (human A3 receptor) [nM] | % cAMP production hA2A [1] | agonist behaviour (intrinsic activity) at the adenosine A2A receptor [1] | inhibition at 10 µM (adenosine A1 receptor) [%] | Ki (adenosine A2A receptor) [nM] | A3/A2A (adenosine A2A receptor) | melting point [°C] | % displacement at 10^-5 M, A3 (human A3 receptor; [2]) [%] | Ki (adenosine A1 receptor) [nM] | % displacement at 10^-5 M, A2A (adenosine A2A receptor) [%] | Ki (human A3 receptor; [125I]AB-MECA, human A3 receptor in HEK 293 cells, ±SEM, n=3, read-out: Ki A3) [nM] | selectivity for the adenosine A2A receptor compared to A3 (adenosine A2A receptor; from Ki values) [fold] |
| --- | --- | --- | --- | --- | --- | --- | --- | --- | --- | --- | --- | --- |
| CCCC/C=C/c1nc(N)c2ncn([C@@H]3O[C@H](CO)[C@@H](O)[C@H]3O)c2n1 [Compound 4, 2-((E)-1-hexenyl)adenosine] | 73.5 ± 7.7 | 82% (78–86) | partial agonism | 53.1 | 26.2 ± 1.8 | 2.78 | – | – | – | – | – | – |
| CCCC/C=C/c1nc(N)c2nc(NCc3ccccc3)n([C@@H]3O[C@H](CO)[C@@H](O)[C@H]3O)c2n1 [Compound 21, 2-((E)-1-hexenyl)-8-benzylaminoadenosine] | – | 73% (72–75) | – | – | – | – | 153 to 155 | 24.3 | 2110 ± 560 | 26.3 | – | – |
| CCCC/C=C/c1nc(N)c2nc(NCCC)n([C@@H]3O[C@H](CO)[C@@H](O)[C@H]3O)c2n1 [Compound 19, 2-((E)-1-hexenyl)-8-propylaminoadenosine] | 14300 ± 2160 | 73% (70–76) | – | 49.5 | 678 ± 25 | 21.1 | 170 to 172 | – | – | – | – | – |
| CCCCC#Cc1nc(N)c2nc(NCCCC)n([C@@H]3O[C@H](CO)[C@@H](O)[C@H]3O)c2n1 [Compound 15, 2-(1-hexynyl)-8-butylaminoadenosine] | – | 72% (63–82) | – | – | 149 ± 29 | – | 182 to 184 | 64.3 | 539 ± 380 | – | – | – |
| CCCCC#Cc1nc(N)c2ncn([C@@H]3O[C@H](CO)[C@@H](O)[C@H]3O)c2n1 [Compound 3, 2-(1-hexynyl)adenosine] | – | 61% (58–64) | partial agonism | – | – | – | – | – | – | – | 16.9 ± 4.1 | – |
| Nc1nc(I)nc2c1nc(NCc1ccccc1)n2[C@@H]1O[C@H](CO)[C@@H](O)[C@H]1O [Compound 11, 2-iodo-8-benzylaminoadenosine] | – | 125% (92–157) | full agonists | 35.5 | – | – | – | 39.5 | – | 44.7 | – | – |
| CCCC/C=C/c1nc(N)c2nc(NC)n([C@@H]3O[C@H](CO)[C@@H](O)[C@H]3O)c2n1 [Compound 17, 2-((E)-1-Hexenyl)-8-methylaminoadenosine] | 13400 ± 2130 | 54% (49–59) | – | 17.9 | 663 ± 106 | 20.3 | 161 to 166 | – | – | – | – | – |
| CCCCC#Cc1nc(N)c2nc(C#CCCCC)n([C@@H]3O[C@H](CO)[C@@H](O)[C@H]3O)c2n1 [Compound 22, 2,8-di-(1-hexynyl)adenosine] | 254 ± 34 | 99% (98–99) | full agonists | 50.3 | – | – | – | – | – | 28.7 | – | – |
| CNc1nc2c(N)nc(I)nc2n1[C@@H]1O[C@H](CO)[C@@H](O)[C@H]1O [Compound 7, 2-Iodo-8-methylaminoadenosine] | 7310 ± 440 | 23% (20–25) | – | 35.2 | – | – | 162 to 164 | – | – | 43.3 | – | – |
| CCCCNc1nc2c(N)nc(I)nc2n1[C@@H]1O[C@H](CO)[C@@H](O)[C@H]1O [Compound 10, 2-Iodo-8-butylaminoadenosine] | – | 28% (27–30) | – | 28.2 | 3110 ± 1650 | – | – | 43.1 | – | – | – | – |
| CCCCC#Cc1nc(N)c2nc(NC)n([C@@H]3O[C@H](CO)[C@@H](O)[C@H]3O)c2n1 [Compound 12, 2-(1-Hexynyl)-8-methylaminoadenosine] | 5640 ± 780 | 85% (85–86) | – | 31.6 | 115 | 49.0 | – | – | – | – | – | – |
| Nc1nc(NCc2ccccc2)nc2c1nc(NCc1ccccc1)n2[C@@H]1O[C@H](CO)[C@@H](O)[C@H]1O [Compound 23, 2,8-di-benzylaminoadenosine] | – | 95% (90–100) | full agonists | 50.2 | – | – | – | 54.1 | – | 11.6 | – | – |
| CCCNc1nc2c(N)nc(I)nc2n1[C@@H]1O[C@H](CO)[C@@H](O)[C@H]1O [Compound 9, 2-Iodo-8-propylaminoadenosine] | 8670 ± 2000 | – | – | 40.2 | – | – | 160 to 162 | – | – | 50.7 | – | – |
| CCNc1nc2c(N)nc(I)nc2n1[C@@H]1O[C@H](CO)[C@@H](O)[C@H]1O [Compound 8, 2-iodo-8-ethylaminoadenosine] | 5110 ± 890 | 77% (76–78) | – | 35.2 | – | – | 205 to 207 | – | – | 40.6 | – | – |
| CCCCC#Cc1nc(N)c2nc(NCc3ccccc3)n([C@@H]3O[C@H](CO)[C@@H](O)[C@H]3O)c2n1 [Compound 16, 2-(1-hexynyl)-8-Benzylaminoadenosine] | 7970 ± 610 | 83% (61–106) | full agonists | – | – | – | 141 to 143 | – | 756 ± 483 | 35.4 | – | – |
| CCCC/C=C/c1nc(N)c2nc(NCCCC)n([C@@H]3O[C@H](CO)[C@@H](O)[C@H]3O)c2n1 [Compound 20, 2-((E)-1-hexenyl)-8-butylaminoadenosine] | – | 36% (33–40) | – | – | 580 ± 250 | – | – | 47.4 | 906 ± 264 | – | – | – |
| Nc1nc(I)nc2c1ncn2[C@@H]1O[C@H](CO)[C@@H](O)[C@H]1O [Compound 1, 2-Iodoadenosine] | – | 126% (118–134) | full agonist | 36.1 | – | – | – | – | – | – | – | – |
| CCCCC#Cc1nc(N)c2nc(NCCC)n([C@@H]3O[C@H](CO)[C@@H](O)[C@H]3O)c2n1 [Compound 14, 2-(1-Hexynyl)-8-propylaminoadenosine] | 2160 ± 120 | 58% (50–66) | – | 47.6 | 82 | 26.3 | 184 to 186 | – | – | – | – | ~26 |
| CCCCC#Cc1nc(N)c2nc(NCC)n([C@@H]3O[C@H](CO)[C@@H](O)[C@H]3O)c2n1 [Compound 13, 2-(1-hexynyl)-8-ethylaminoadenosine] | 8830 ± 1230 | 134% (124–143) | full agonist | 30.9 | 253 ± 29 | 34.9 | – | – | – | – | – | – |
| Nc1nc(I)nc2c1nc(Br)n2[C@@H]1O[C@H](CO)[C@@H](O)[C@H]1O [Compound 5, 2-iodo-8-bromoadenosine] | – | – | – | 21.6 | – | – | – | 6.2 | – | 43.1 | – | – |
